Test system: primary progressive EAE (PP-EAE) in C57BL/6 female mice
Assay: MOG 35-55 induced primary progressive EAE (PP-EAE) in mice: clinical score, body weight, survival
Conditions: for Body weight compared with untreated control (FIG. 2): P<0.05
[1] = C57BL/6 mice, PP-EAE, GA Depot 4 mg IM Day 0, 1, Copaxone 2 mg SC Days 0-8, N = 20/group, +/- standard error
[2] = C57BL/6 mice, PP-EAE, GA Depot 4 mg IM Day 0, 1, Copaxone 2 mg SC Days 0-8, N = 20/group, +/- standard error, listed as Copaxone®

Method: Animals were given food and water ad-libitum throughout the experiment. […] A 21G needle was used for injections in mice. […] Measurements: Body weight was measured every two days from day 0 to day 28. EAE was assessed by clinical scoring of the mice once daily from Day 0 to Day 28 post immunization (Table 2). For analysis, dead animals received clinical score of 5 and the weight recorded at the last measurement before animal death.
The following calculations were derived from clinical score raw data: mean maximum score is the mean of the highest scores noted for each mouse in a specific group up to indicated day of analysis; mean disease duration and mean day of onset were calculated as follows: Mean Disease Duration=Sum of (day of analysis−day of disease onset for each mouse)/(number of mice per group); Mean Day of Onset=(sum of day of disease onset of each mouse)/(number of mice per group). Area under the curve (AUC) of clinical score was calculated using Microsoft Excel and represents disease burden.
Glatiramer Acetate Depot (GA Depot): GA Depot was suspended in water for injection (WFI) and immediately injected intramuscularly (IM) at the indicated dose. Dose of GA Depot are given according to amount of active ingredient (i.e. GA Depot 4 mg contains 4 mg GA).
Statistical analysis: Data was analyzed using Microsoft Excel. Each data set was analyzed using single-factor analysis of variance (ANOVA) followed by one tailed student's T-test.

glatiramer acetate [Copaxone ®]
Survival Rate at Day 28 (C57BL/6 mice, PP-EAE, GA Depot 4 mg IM Day 0, 1, Copaxone 2 mg SC Days 0-8, N = 20/group): 90% | AUC Clinical Score [1]: 26.83 ± 2.49 | Mean Day of Onset [1]: 12.35 ± 0.23 | Mean Disease Duration [1]: 15.65 ± 0.23 | AUC Clinical Score [2]: significantly reduced | Mean Day of Onset [2]: significantly reduced | Mean Disease Duration [2]: significantly reduced | Maximum Mean Disease Score (C57BL/6 mice, PP-EAE, GA Depot 4 mg IM Day 0, 1, Copaxone 2 mg SC Days 0-8, score 0-5, N = 20/group, +/- standard error): 2.25 ± 0.22 | Body weight compared with untreated control (FIG. 2) (day 21): significantly higher | Body weight compared with untreated control (FIG. 2) (days 10 to 17 following immunization): significantly higher | mean clinical score compared with saline group (FIG. 1) (days 11-19 and day 20, p<0.05, GA Depot 4 mg, Copaxone 2 mg days 0-8): mean clinical score of the saline group was significantly higher

From patent US12343371B2, “Method for suppressing or alleviating primary or secondary progressive multiple sclerosis (PPMS or SPMS) using a sustained release depot formulation comprising glatiramer acetate” (MAPI PHARMA LTD., priority 2017, dated 2025)
